In PubChem BioAssay (NCI):
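Cultured in 96-well plates, cells were exposed to test compound for 48 hours across five concentrations. At the TGI there is no net growth.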 Starred links: 1 amine or outer side, 2 acyl side, 3 side chain; linkers in the order of their positions; H or OH if unused. Positions of bridges follow the written chain, without caps; N, C: chain ends. Non-standard residues stand in square brackets, D forms with d. Residues, ends and D or L forms follow the SMILES beside them. *: point of attachment. X3 = CC(C)C(C)C(C(=O)[*:2])N(C)[*:1]; Picolinoyl(3-OH) = O=C(c1ncccc1O)*; NMePhg = CN[CH](C(=O)O)c1ccccc1; Hyp = O=C(O)[CH]1C[CH](O)CN1; Sar = CNCC(=O)O

Assays:
Test in all cases: NCI tumour cell line growth inhibition, 48 h
[1] = system: RXF-631 renal
[2] = system: OVCAR-5 ovarian
[3] = system: SNB-75 CNS
[4] = system: M19-MEL melanoma
[5] = system: U251 CNS
[6] = system: UACC-62 melanoma
[7] = system: CAKI-1 renal
[8] = system: MOLT-4 leukemia
[9] = system: KM12 colon
[10] = system: OVCAR-4 ovarian
[11] = system: NCI-H522 lung
[12] = system: MALME-3M melanoma
[13] = system: OVCAR-3 ovarian
[14] = system: IGROV1 ovarian
[15] = system: SNB-19 CNS
[16] = system: HCC-2998 colon
[17] = system: SK-OV-3 ovarian
[18] = system: DMS 114 small cell lung
[19] = system: HL-60(TB) leukemia
[20] = system: HOP-18 NSCLC
[21] = system: NCI-H23 lung
[22] = system: COLO 205 colon
[23] = system: DMS 273 small cell lung
[24] = system: KM20L2 colon
[25] = system: HCT-15 colon
[26] = system: ACHN renal
[27] = system: SK-MEL-5 melanoma
[28] = system: SF-539 CNS
[29] = system: XF 498 CNS
[30] = system: OVCAR-8 ovarian
[31] = system: SNB-78 CNS
[32] = system: UACC-257 melanoma
[33] = system: SR leukemia
[34] = system: HT29 colon
[35] = system: HOP-92 NSCLC
[36] = system: SF-295 CNS
[37] = system: RPMI-8226 leukemia
[38] = system: SW-620 colon
[39] = system: CCRF-CEM leukemia
[40] = system: LXFL 529 NSCLC
[41] = system: A549 NSCLC
[42] = system: SK-MEL-28 melanoma
[43] = system: K-562 leukemia
[44] = system: EKVX NSCLC
[45] = system: HOP-62 NSCLC
[46] = system: SN12C renal
[47] = system: M14 melanoma
[48] = system: 786-0 renal
[49] = system: SK-MEL-2 melanoma
[50] = system: HCT-116 colon
[51] = system: UO-31 renal
[52] = system: TK-10 renal
[53] = system: A498 renal
[54] = system: NCI-H460 lung
[55] = system: LOX IMVI melanoma
[56] = system: SF-268 CNS
[57] = system: NCI-H226 lung
[58] = system: DLD-1 colon
[59] = system: P388/ADR leukemia
[60] = system: SN12K1 renal
[61] = system: RXF 393 renal

## O=c1cc(-c2ccccc2)oc2cc(OCCCCCCCCCCOc3ccc4c(=O)cc(-c5ccccc5)oc4c3)ccc12
[1]
  TGI: > 100 µM
[2]
  TGI: > 100 µM
[3]
  TGI: > 100 µM
[4]
  TGI: > 100 µM
[5]
  TGI: > 100 µM
[6]
  TGI: > 100 µM
[7]
  TGI: > 100 µM
[8]
  TGI: > 100 µM
[9]
  TGI: > 100 µM
[10]
  TGI: > 100 µM
[11]
  TGI: > 100 µM
[12]
  TGI: > 100 µM
[13]
  TGI: > 100 µM
[14]
  TGI: > 100 µM
[15]
  TGI: > 100 µM
[16]
  TGI: > 100 µM
[17]
  TGI: > 100 µM
[18]
  TGI: > 100 µM
[19]
  TGI: > 100 µM
[20]
  TGI: > 100 µM
[21]
  TGI: > 100 µM
[22]
  TGI: > 100 µM
[23]
  TGI: > 100 µM
[24]
  TGI: > 100 µM
[25]
  TGI: > 100 µM
[26]
  TGI: > 100 µM
[27]
  TGI: > 100 µM
[28]
  TGI: > 100 µM
[29]
  TGI: > 100 µM
[30]
  TGI: > 100 µM
[31]
  TGI: > 100 µM
[32]
  TGI: > 100 µM
[33]
  TGI: > 100 µM
[34]
  TGI: > 100 µM
[35]
  TGI: > 100 µM
[36]
  TGI: > 100 µM
[37]
  TGI: > 100 µM
[38]
  TGI: > 100 µM
[39]
  TGI: > 100 µM
[40]
  TGI: > 100 µM
[41]
  TGI: > 100 µM
[42]
  TGI: > 100 µM
[43]
  TGI: > 100 µM
[44]
  TGI: > 100 µM
[45]
  TGI: > 100 µM
[46]
  TGI: > 100 µM
[47]
  TGI: > 100 µM
[48]
  TGI: > 100 µM
[49]
  TGI: > 100 µM
[50]
  TGI: > 100 µM

## C[C@]12CC[C@H](OC(=O)Nc3ccccc3)CC1=CC[C@@H]1C2CC[C@]2(C)/C(=N/OC(=O)Nc3ccccc3)CCC12 (some centres not stated)
[1]
  TGI: > 100 µM
[2]
  TGI: > 100 µM
[3]
  TGI: > 100 µM
[4]
  TGI: > 100 µM
[5]
  TGI: > 100 µM
[6]
  TGI: > 100 µM
[7]
  TGI: 4.96 µM
[8]
  TGI: > 100 µM
[9]
  TGI: > 100 µM
[10]
  TGI: > 100 µM
[13]
  TGI: > 100 µM
[14]
  TGI: > 100 µM
[15]
  TGI: > 100 µM
[16]
  TGI: > 100 µM
[17]
  TGI: > 100 µM
[18]
  TGI: > 100 µM
[19]
  TGI: > 100 µM
[20]
  TGI: 37.9 µM
[21]
  TGI: > 100 µM
[22]
  TGI: > 100 µM
[23]
  TGI: > 100 µM
[51]
  TGI: 7.91 µM
[24]
  TGI: > 100 µM
[25]
  TGI: 3.31 µM
[52]
  TGI: > 100 µM
[26]
  TGI: > 100 µM
[27]
  TGI: > 100 µM
[28]
  TGI: > 100 µM
[29]
  TGI: 3.19 µM
[53]
  TGI: > 100 µM
[30]
  TGI: > 100 µM
[54]
  TGI: > 100 µM
[31]
  TGI: > 100 µM
[34]
  TGI: > 100 µM
[35]
  TGI: 72.1 µM
[55]
  TGI: > 100 µM
[36]
  TGI: > 100 µM
[37]
  TGI: > 100 µM
[38]
  TGI: > 100 µM
[39]
  TGI: > 100 µM
[56]
  TGI: > 100 µM
[40]
  TGI: 2.52 µM
[41]
  TGI: > 100 µM
[43]
  TGI: > 100 µM
[44]
  TGI: > 100 µM
[46]
  TGI: 3.32 µM
[47]
  TGI: > 100 µM
[48]
  TGI: > 100 µM
[49]
  TGI: > 100 µM
[50]
  TGI: > 100 µM

## Cn1cnnc1Sc1c([N+](=O)[O-])nc(-c2ccc([N+](=O)[O-])cc2)n1C
[1]
  TGI: 32.8 µM
[2]
  TGI: 52 µM
[3]
  TGI: 87.5 µM
[4]
  TGI: 32.3 µM
[5]
  TGI: 30.2 µM
[6]
  TGI: 30.4 µM
[7]
  TGI: > 100 µM
[8]
  TGI: 31.8 µM
[9]
  TGI: 41.2 µM
[10]
  TGI: 29.5 µM
[11]
  TGI: 19.7 µM
[12]
  TGI: 29.5 µM
[13]
  TGI: 30.8 µM
[14]
  TGI: 33.4 µM
[15]
  TGI: > 100 µM
[16]
  TGI: 31.8 µM
[17]
  TGI: > 100 µM
[18]
  TGI: 32.4 µM
[20]
  TGI: 31.3 µM
[21]
  TGI: 32.4 µM
[22]
  TGI: 28.3 µM
[57]
  TGI: 89.9 µM
[23]
  TGI: 31.8 µM
[51]
  TGI: 28 µM
[52]
  TGI: 32.9 µM
[26]
  TGI: 33.7 µM
[27]
  TGI: 30.8 µM
[28]
  TGI: 33.2 µM
[29]
  TGI: 22.5 µM
[53]
  TGI: > 100 µM
[30]
  TGI: 33 µM
[54]
  TGI: > 100 µM
[31]
  TGI: 35.6 µM
[32]
  TGI: 29.5 µM
[33]
  TGI: 35.5 µM
[34]
  TGI: 34.3 µM
[35]
  TGI: 34.9 µM
[55]
  TGI: 26.8 µM
[36]
  TGI: > 100 µM
[37]
  TGI: 37.8 µM
[38]
  TGI: 31.3 µM
[39]
  TGI: 33.7 µM
[56]
  TGI: 32.5 µM
[40]
  TGI: 26.8 µM
[41]
  TGI: > 100 µM
[42]
  TGI: 29.6 µM
[43]
  TGI: 53.2 µM
[44]
  TGI: 76.1 µM
[45]
  TGI: > 100 µM
[46]
  TGI: 29.6 µM
[47]
  TGI: 30.6 µM
[48]
  TGI: 31.8 µM
[49]
  TGI: 29.8 µM
[50]
  TGI: 28.4 µM
[58]
  TGI: 29.3 µM

## CC(C)CC1NC(=O)C(NC(=O)c2ncccc2O)C(C)OC(=O)C(c2ccccc2)N(C)C(=O)C(C)NC(=O)C(C(C)C(C)C)N(C)C(=O)CN(C)C(=O)C2CC(O)CN2C1=O (configuration not stated) ({Picolinoyl(3-OH)}-TL[Hyp][Sar][X3]A[NMePhg]; ester 1-C; configuration not given here)
[4]
  TGI: > 125 µM
[59]
  TGI: > 125 µM
[18]
  TGI: > 125 µM
[60]
  TGI: > 125 µM
[20]
  TGI: > 125 µM
[21]
  TGI: > 125 µM
[57]
  TGI: > 125 µM
[23]
  TGI: > 125 µM
[24]
  TGI: > 12.5 µM
[29]
  TGI: > 120 µM
[31]
  TGI: > 125 µM
[32]
  TGI: > 125 µM
[35]
  TGI: > 125 µM
[58]
  TGI: > 125 µM

## O=C(Nc1ccccc1)N1C(c2ccccc2)=N[C@@H](c2ccccc2)[C@@H]1c1ccccc1
[1]
  TGI: 79 µM
[2]
  TGI: 45.1 µM
[3]
  TGI: 53.5 µM
[4]
  TGI: 38.7 µM
[6]
  TGI: 34.7 µM
[7]
  TGI: 48.7 µM
[8]
  TGI: 44.5 µM
[9]
  TGI: 34 µM
[10]
  TGI: 44.6 µM
[12]
  TGI: 34.7 µM
[13]
  TGI: 62.8 µM
[14]
  TGI: 53.4 µM
[15]
  TGI: 97.9 µM
[61]
  TGI: 34.2 µM
[16]
  TGI: 35.2 µM
[18]
  TGI: 29.9 µM
[19]
  TGI: 46.5 µM
[20]
  TGI: 50.7 µM
[21]
  TGI: 55.4 µM
[22]
  TGI: 28.8 µM
[57]
  TGI: 46.4 µM
[51]
  TGI: 30.6 µM
[24]
  TGI: 37.3 µM
[25]
  TGI: 60.4 µM
[52]
  TGI: 76.1 µM
[26]
  TGI: 31.4 µM
[27]
  TGI: 26.8 µM
[28]
  TGI: 33.7 µM
[53]
  TGI: 35.8 µM
[30]
  TGI: 45.6 µM
[54]
  TGI: > 100 µM
[31]
  TGI: > 100 µM
[32]
  TGI: 35.3 µM
[33]
  TGI: 40.4 µM
[34]
  TGI: 31.6 µM
[35]
  TGI: 53.3 µM
[55]
  TGI: 28.2 µM
[36]
  TGI: 62.7 µM
[37]
  TGI: 61.3 µM
[38]
  TGI: 35.2 µM
[39]
  TGI: 60 µM
[56]
  TGI: 49.2 µM
[40]
  TGI: 31.6 µM
[41]
  TGI: 52 µM
[42]
  TGI: 30.6 µM
[43]
  TGI: 50.9 µM
[44]
  TGI: > 100 µM
[45]
  TGI: 47.9 µM
[46]
  TGI: 47.2 µM
[47]
  TGI: 28.2 µM
[48]
  TGI: 34.7 µM
[50]
  TGI: 36.3 µM
[58]
  TGI: 35.6 µM
